Measured values taken from US10570168B2, “2′ and/or 5′ amino-acid ester phosphoramidate 3′-deoxy adenosine derivatives as anti- cancer compounds” (NuCana plc, priority 2014, dated 2020).
Read-outs that look alike come from different tables or passages of the source. Blank lines part the entries; values can stand above or below the molecule they belong to.

What was measured:
Assay type in all cases: cell-based
MCF-7 = test: CellTiterGlo viability assay, initial screening; conditions: Homo sapiens, read-out: IC50 (relative IC50)
Method: (§1) In vitro viability assays were performed to assess the effects of compounds on cell viability in 7 selected cell lines over 72 hr using the CellTiterGlo (CTG, Promega-G7573) assay. The tests were performed in duplicates with treatment of compounds at 9 points, 3.16 folds titration in 96 well plates over ˜72 hr. The compound starting concentrations were […]. Cell viability assay using CellTiterGlo in 96-well plate were performed. The compound treatment was 72 hrs, under standard growth conditions, and in duplicate. Compounds were dissolved to 40 mM with thawed […]. Compounds were serially diluted at 3.16 fold in thawed DMSO, and warmed to 37° C. before being dissolved in media (2 μl+200 μl). After compounds were dissolved in media (media was also warmed to 37° C.). Media containing compounds were warmed to 37° C. in incubator and then compounds in media were added to cell plates (50 μl+50 μl), in duplicates. The compounds final concentrations were from […] to 19.9 nM. All compound solubilities were checked and recorded again, then the plates were transferred to CO2 tissue culture incubator immediately and incubated for 3 days. DMSO final concentration is 0.5%.

K562 [1] = test: CellTiterGlo viability assay, initial screening; conditions: Homo sapiens, read-out: IC50 (relative IC50)
Method: as §1

HepG2 [2] = test: CellTiterGlo viability assay, initial screening; conditions: Homo sapiens, read-out: IC50 (relative IC50)
Method: as §1

HL-60 [3] = test: CellTiterGlo viability assay, initial screening; conditions: Homo sapiens, read-out: IC50 (relative IC50)
Method: as §1

KG-1 [4] = test: CellTiterGlo viability assay, initial screening; conditions: Homo sapiens, read-out: IC50 (relative IC50)
Method: as §1

MOLT-4 [5] = test: CellTiterGlo viability assay, initial screening; conditions: Homo sapiens, read-out: IC50 (relative IC50)
Method: as §1

MCF7 = test: Solid tumour and haematological malignancy assay (CellTiterGlo); conditions: Homo sapiens; for IC50: read-out: IC50 (absolute IC50); for Emax: read-out: MI %
Summary of the method: (§2)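 72 hr compound treatment, duplicates, 0.5% DMSO final; readout CellTiterGlo.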

MiaPaCa-2 = test: as above; conditions: Homo sapiens; for IC50: read-out: IC50 (absolute IC50); for Emax: read-out: MI %
Summary of the method: as §2

HT29 = test: as above; conditions: Homo sapiens; for IC50: read-out: IC50 (absolute IC50); for Emax: read-out: MI %
Summary of the method: as §2

CCRFCEM = test: as above; conditions: Homo sapiens, CCRF-CEM; for IC50: read-out: IC50 (absolute IC50); for Emax: read-out: MI %
Summary of the method: as §2

K562 [6] = test: as above; conditions: Homo sapiens; for IC50: read-out: IC50 (absolute IC50); for Emax: read-out: MI %
Summary of the method: as §2

HEL92.1.7 = test: as above; conditions: Homo sapiens; for IC50: read-out: IC50 (absolute IC50); for Emax: read-out: MI %
Summary of the method: as §2

HepG2 [7] = test: as above; conditions: Homo sapiens; for IC50: read-out: IC50 (absolute IC50); for Emax: read-out: MI %
Summary of the method: as §2

HL-60 [8] = test: as above; conditions: Homo sapiens; for IC50: read-out: IC50 (absolute IC50); for Emax: read-out: MI %
Summary of the method: as §2

KG-1 [9] = test: as above; conditions: Homo sapiens; for IC50: read-out: IC50 (absolute IC50); for Emax: read-out: MI %
Summary of the method: as §2

MV4-11 = test: as above; conditions: Homo sapiens; for IC50: read-out: IC50 (absolute IC50); for Emax: read-out: MI %
Summary of the method: (§3)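 Cells were treated in duplicate with a 9-point, 3.16-fold dilution series for about 72 h under standard growth conditions. Final concentrations ran from […] to 19.9 nM, with 0.5% DMSO. Viability was read by CellTiter-Glo luminescence.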

SW620 = test: as above; conditions: Homo sapiens; for IC50: read-out: IC50 (absolute IC50); for Emax: read-out: MI %
Summary of the method: as §3

BxPC-3 = test: as above; conditions: Homo sapiens, read-out: IC50 (absolute IC50)
Summary of the method: as §3

THP-1 = test: as above; conditions: Homo sapiens; for IC50: read-out: IC50 (absolute IC50); for Emax: read-out: MI %
Summary of the method: as §3

MOLT-4 [10] = test: as above; conditions: Homo sapiens; for IC50: read-out: IC50 (absolute IC50); for Emax: read-out: MI %
Summary of the method: as §3

Structure (SMILES): C[C@H](NP(=O)(OC[C@@H]1CC(O)[C@H](n2cnc3c(N)ncnc32)O1)Oc1ccccc1)C(=O)OCc1ccccc1 (stereo partly drawn) [Compound A, 3′-deoxyadenosine-5′-O-[phenyl(benzyloxy-L-alaninyl)] phosphate]
IC50 (MCF-7; MCF7, 72 h): 0.1 to 5 µM
IC50 (K562 [1]; K562, 72 h): 0.1 to 5 µM
IC50 (HepG2 [2]; HepG2, 72 h): 5 to 15 µM
IC50 (HL-60 [3]; HL-60, 72 h): 5 to 15 µM
IC50 (KG-1 [4]; KG-1, 72 h): 5 to 15 µM
IC50 (MOLT-4 [5]; MOLT-4, 72 h): 0.1 to 5 µM
IC50 (MCF7; MCF7, 72 h): 0.1 to 5 µM
Emax (MCF7; MCF7, 72 h): 99%
IC50 (MiaPaCa-2; MIA PaCa-2, 72 h): 5 to 15 µM
Emax (MiaPaCa-2; MIA PaCa-2, 72 h): 96%
IC50 (HT29; HT-29, 72 h): 5 to 15 µM
Emax (HT29; HT-29, 72 h): 93%
IC50 (CCRFCEM; 72 h): 0.1 to 5 µM
Emax (CCRFCEM; 72 h): 100%
IC50 (K562 [6]; K562, 72 h): 0.1 to 5 µM
Emax (K562 [6]; K562, 72 h): 96%
IC50 (HEL92.1.7; HEL 92.1.7, 72 h): 5 to 15 µM
Emax (HEL92.1.7; HEL 92.1.7, 72 h): 100%
IC50 (HepG2 [7]; HepG2, 72 h): 15 to 100 µM
Emax (HepG2 [7]; HepG2, 72 h): 75%
IC50 (HL-60 [8]; HL-60, 72 h): 5 to 15 µM
Emax (HL-60 [8]; HL-60, 72 h): 99%
IC50 (KG-1 [9]; KG-1, 72 h): 15 to 100 µM
Emax (KG-1 [9]; KG-1, 72 h): 100%
IC50 (MV4-11; MV4-11, 72 h): 0.1 to 5 µM
Emax (MV4-11; MV4-11, 72 h): 99%
IC50 (SW620; SW-620, 72 h): 15 to 100 µM
Emax (SW620; SW-620, 72 h): 85%
IC50 (BxPC-3; BXPC-3, 72 h): 15 to 100 µM
IC50 (THP-1; THP-1, 72 h): 15 to 100 µM
Emax (THP-1; THP-1, 72 h): 74%
IC50 (MOLT-4 [10]; MOLT-4, 72 h): 0.1 to 5 µM
Emax (MOLT-4 [10]; MOLT-4, 72 h): 98%

IC50 (MCF-7; MCF7, MCF-7, 72 hr): 15 to 100 µM
IC50 (K562 [1]; K562, 72 hr): 15 to 100 µM
IC50 (HepG2 [2]; HepG2, 72 hr): 15 to 100 µM
IC50 (HL-60 [3]; HL-60, 72 hr): 15 to 100 µM
IC50 (MOLT-4 [5]; MOLT-4, 72 hr): 15 to 100 µM
IC50 (MCF7; MCF7, 72 hr): > 100 µM
IC50 (MiaPaCa-2; MIA PaCa-2, MiaPaCa-2, 72 hr): > 100 µM
IC50 (HT29; HT-29, HT29, 72 hr): > 100 µM
IC50 (CCRFCEM; CCRFCEM, 72 hr): > 100 µM
IC50 (K562 [6]; K562, 72 hr): 15 to 100 µM
IC50 (HEL92.1.7; HEL 92.1.7, HEL92.1.7, 72 hr): 15 to 100 µM
IC50 (HepG2 [7]; HepG2, 72 hr): > 100 µM
IC50 (HL-60 [8]; HL-60, 72 hr): > 100 µM
IC50 (KG-1 [9]; KG-1, 72 hr): > 100 µM
IC50 (MV4-11; MV4-11, 72 hr): > 100 µM
IC50 (SW620; SW-620, SW620, 72 hr): > 100 µM
IC50 (BxPC-3; BxPC-3, 72 hr): > 100 µM
IC50 (THP-1; THP-1, 72 hr): > 100 µM
IC50 (MOLT-4 [10]; MOLT-4, 72 hr): > 100 µM
Structure (SMILES): Nc1ncnc2c1ncn2[C@@H]1O[C@H](CO)C[C@H]1O [Cordycepin, 3′-deoxyadenosine, reference compound]
IC50 (KG-1 [4]; KG-1, 72 hr): 15 to 100 µM
Emax (MCF7; MCF7, 72 hr): 77%
Emax (MiaPaCa-2; MIA PaCa-2, MiaPaCa-2, 72 hr): 35%
Emax (HT29; HT-29, HT29, 72 hr): 44%
Emax (CCRFCEM; CCRFCEM, 72 hr): 41%
Emax (K562 [6]; K562, 72 hr): 78%
Emax (HEL92.1.7; HEL 92.1.7, HEL92.1.7, 72 hr): 88%
Emax (HepG2 [7]; HepG2, 72 hr): 13%
Emax (HL-60 [8]; HL-60, 72 hr): 61%
Emax (KG-1 [9]; KG-1, 72 hr): 69%
Emax (MV4-11; MV4-11, 72 hr): 1%
Emax (SW620; SW-620, SW620, 72 hr): 10%
Emax (THP-1; THP-1, 72 hr): -3%
Emax (MOLT-4 [10]; MOLT-4, 72 hr): 46%
